The numbers were not newly measured in patent US20100305045A1, “OMEGA-3 OIL CONTAINING OPHTHALMIC EMULSIONS” (Abbott Medical Optics Inc., priority 2009, published 2010), which cites them from elsewhere.

The conditions of the first series: HLB value as reported by the manufacturer of the commercial product, or rough average.
As to “2,4,7,9-Tetramethyl-5-decyne-4,7-diol ethoxylate”, the HLB was 8.0.

For “2,4,7,9-Tetramethyl-5-decyne-4,7-diol ethoxylate (15 EO/OH)”, the HLB is on record as 17.0.

Polyoxyethylene sorbitan tetraoleate: the HLB is recorded as 11.4.

For the substance Polyoxyethylene sorbitol hexaoleate, the HLB is listed as 10.2.

With “Polyoxyethylene(2) cetyl ether [Brij ® 52]”, the HLB was 5.3.

For the substance “Polyoxyethylene(2) isooctylphenyl ether [Igepal ® CA-210]”, the HLB is listed as 4.3.

In the case of “Polyoxyethylene(2) nonylphenyl ether [Igepal CO-210]”, the HLB is reported as 4.6.

As to “Polyoxyethylene(2) oleyl ether [Brij ® 92/93]”, the HLB is 4.9.

On to “Polyoxyethylene(2) stearyl ether [Brij ® 72]”, for which the HLB is reported as 4.9.

Take “Polyoxyethylene(4) lauryl ether [Brij ® 30]”: the HLB was 9.7.

For the substance “Polyoxyethylene(5) isooctylphenyl ether [Igepal ® CA-520]”, the HLB is 10.0.

As for “Polyoxyethylene(5) nonylphenyl ether [Igepal ® CO-520]”, the HLB is recorded as 10.0.

“Polyoxyethylene(12) isooctylphenyl ether [Igepal ® CA-720]”: the HLB is listed as 14.6.

In the case of “Polyoxyethylene(12) nonylphenyl ether [Igepal ® CO-720]”, the HLB is 14.2.

With Polyoxyethylene(12) tridecyl ether, the HLB is listed as 14.5.

For Polyoxyethylene(18) tridecyl ether, the HLB is given as 14.5.

Take “Polyoxyethylene(40) isooctylphenyl ether [Triton ® X-405]”: the HLB was 17.9.

As for “Polyoxyethylene(40) nonylphenyl ether [Igepal ® CO-890]”, the HLB is listed as 17.8.

“Polyoxyethylene(100) nonylphenyl ether [Igepal ® CO-990]”: the HLB is 19.0.

For the substance “Polyoxyethylene(100) stearyl ether [Brij ® 700]”, the HLB was 18.8.

Consider “Polyoxyethylene(150) dinonylphenyl ether [Igepal ® DM-970]”, for which the HLB is listed as 19.0.

Consider Sorbitan monooleate, for which the HLB is 4.3.

In the case of Sorbitan monopalmitate, the HLB is recorded as 6.7.

For the substance Sorbitan monostearate, the HLB is reported as 4.7.

The series is the same for the next values; noted with them: HLB value as reported by the manufacturer of the commercial product, or rough average; listed as Brij 72.
Take “Polyoxyethylene(2) stearyl ether [Brij ® 72]”: the HLB entry is listed as “approximately 4.9”.
